Experimental data taken from patent publication US9994913B2, “Methods and compositions for detecting and treating drug resistant AKT mutant” (Genentech, Inc., priority 2013, dated 2018).
“Also recorded” adds a separate entry of the source.

Key:
Assay type in all cases: cell-based
LNCaP cells = test: Dose response of AKT inhibitors in parental and AKT-inhibitor-resistant LNCaP cells (FIGS. 1-2, 6)
Description: Resistant clones to both inhibitors were derived from populations of cancer cells treated with increasing doses of AKT inhibitor over time. […] For MK2206, cells that are ˜40× less sensitive were cloned.
(§1) The in vitro potency of the combinations of the compound of Example 2 with certain specific chemotherapeutic agents was measured using the CellTiterGlo® Luminescent Cell Viability Assay, commercially available from Promega Corp., Madison, Wis. This homogeneous assay method is based on the recombinant expression of Coleoptera luciferase (U.S. Pat. Nos. 5,583,024; 5,674,713; 5,700,670) and determines the number of viable cells in culture based on quantitation of the ATP present, an indicator of metabolically active cells (Crouch et al (1993) J. Immunol. Meth. 160:81-88; U.S. Pat. No. 6,602,677). The CellTiter-Glo® Assay was conducted in 96 or 384 well format, making it amenable to automated high-throughput screening (HTS) (Cree et al (1995) AntiCancer Drugs 6:398-404). The homogeneous assay procedure involves adding the single reagent (CellTiter-Glo® Reagent) directly to cells cultured in serum-supplemented medium. Cell washing, removal of medium and multiple pipetting steps are not required. The system detects as few as 15 cells/well in a 384-well format in 10 minutes after adding reagent and mixing.
The homogeneous “add-mix-measure” format results in cell lysis and generation of a luminescent signal proportional to the amount of ATP present. The amount of ATP is directly proportional to the number of cells present in culture. The CellTiterGlo® Assay generates a “glow-type” luminescent signal, produced by the luciferase reaction, which has a half-life generally greater than five hours, depending on cell type and medium used. Viable cells are reflected in relative luminescence units (RLU). […] Data can be recorded by luminometer or CCD camera imaging device. The luminescence output is presented as relative light units (RLU), measured over time.

pS6 = test: Western blot of AKT inhibitor dosed LNCaP cells, downstream pS6 (FIGS. 3-4)
Excerpt: (§2) FIGS. 3-4 show Western blot analysis of AKT inhibitor dosed to cancer cells (LNCaP cells).

IGROV1 cells = test: Treatment of parental and AKT-inhibitor-resistant IGROV1 ovarian cancer cells (FIGS. 7-9); conditions: for potency in parental and resistant lines: all IGROV1 lines, FIG. 9
Description: as §1
The homogeneous “add-mix-measure” format results in cell lysis and generation of a luminescent signal proportional to the amount of ATP present. The amount of ATP is directly proportional to the number of cells present in culture. The CellTiterGlo® Assay generates a “glow-type” luminescent signal, produced by the luciferase reaction, which has a half-life generally greater than five hours, depending on cell type and medium used. Viable cells are reflected in relative luminescence units (RLU). The substrate, Beetle Luciferin, is oxidatively decarboxylated by recombinant firefly luciferase with concomitant conversion of ATP to AMP and generation of photons. The extended half-life eliminates the need to use reagent injectors and provides flexibility for continuous or batch mode processing of multiple plates. This cell proliferation assay can be used with various multiwell formats, e.g. 96 or 384 well format. Data can be recorded by luminometer or CCD camera imaging device. The luminescence output is presented as relative light units (RLU), measured over time.

Akt = test: Western blot of AKT inhibitor dosed LNCaP cells, Akt phosphorylation and inhibitor binding (FIGS. 3-4); conditions: MK2206 resistant LNCaP cells vs parental lines
Excerpt: as §2

CC(C)NC[C@@H](C(=O)N1CCN(c2ncnc3c2[C@H](C)C[C@H]3O)CC1)c1ccc(Cl)cc1 [GDC-0068, (S)-2-(4-chlorophenyl)-1-(4-((5R,7R)-7-hydroxy-5-methyl-6,7-dihydro-5H-cyclopenta [d]pyrimidin-4-yl)piperazin-1-yl)-3-(isopropylamino)propan-1-one]
sensitivity of MK2206-resistant cells to the inhibitor (LNCaP cells; MK2206-resistant LNCaP cells, FIG. 6): still sensitive; also recorded: remain sensitvie
inhibition of downstream pS6 (pS6; GDC-0068 resistant LNCaP cells): less potent
resistance of GDC0068-resistant cells to the inhibitor (IGROV1 cells; IGROV1 cells resistant to GDC0068, GDC-0068 compared with MK2206): more resistant to GDC-0068 than MK2206

CS(=O)(=O)N1CCN(Cc2cc3nc(-c4cccc5[nH]ncc45)nc(N4CCOCC4)c3s2)CC1 [GDC-0941]
potency in parental and resistant lines (IGROV1 cells): remain potent

Cc1c(CN2CCN(C(=O)[C@H](C)O)CC2)sc2c(N3CCOCC3)nc(-c3cnc(N)nc3)nc12 [GDC-0980]
potency in parental and resistant lines (IGROV1 cells): remain potent

NC1(c2ccc(-c3nc4ccn5c(=O)[nH]nc5c4cc3-c3ccccc3)cc2)CCC1 [MK2206, 8-[4-(1-aminocyclobutyl)phenyl]-9-phenyl-1,2,4-triazolo[3,4-f][1,6]naphthyridin-3(2H)-one]
resistance of GDC-0068 selected cells to the inhibitor (LNCaP cells; GDC-0068 selected LNCaP cells, FIG. 6): similarly resistant
fold less sensitive to MK2206, resistant clones vs parental (LNCaP cells; LNCaP clones derived under increasing doses of MK2206): ~40 ×
inhibition of pS6 (pS6; MK2206 resistant LNCaP cells): lost the inhibition of pS6
inhibition of Akt phosphorylation (Akt): failed to inhibit Akt phosphorylation
resistance to allosteric inhibition (IGROV1 cells; IGROV1 cells resistant to GDC0068 and cells resistant to MK2206): equally resistant
